From patent US6300499A, “α1-adrenergic receptor antagonists” (Societe de Conseils de Recherches et d'Applications …, priority 1998, dated 2001)

Experiments:
α1-adrenergic receptor = assay: Test of the bond to the α1-adrenergic receptor (inhibition of [3H]prazosin bond to rat cerebral cortex); type: binding, rat (male Sprague Dawley); details: [3H]prazosin 0.2 nM, rat cerebral cortex membranes, 30 min, 25° C., pH 7.7
Experimental: The cerebral cortices of male Sprague Dawley rats are homogenized at 4° C. in Tris-HCl 50 mM pH=7.7 and centrifuged at 50,000 g for 30 minutes at 4° C. The pellets are again suspended in the same buffer and centrifuged again at 50,000 g for 30 minutes at 4° C.
The filters are rinsed three times with the same buffer at 0-4° C. and their radioactivity is tested by liquid scintillation spectrometry.
The specific bonds are obtained by subtracting the non-specific bonds (determined in the presence of 10 μM of phentolamine (Sigma Chemical Co. St. Louis Mo.)) from the total bonds. The data relative to the bonds is analyzed by computer assisted iterative non-linear regression analysis, using the Ligand program (Munson, P. J., Rodbard, D. Anal. Biochem. 107:220 (1980)).

prostatic urethrae = assay: Urethra Contraction Test (inhibition of phenylephrine contraction of prostatic urethra); set-up: species or system rabbit (male New Zealand); details: inhibition of contraction of rabbit prostatic urethra, agonist phenylephrine, compound 30 min before
Experimental: The urethrae are removed from male New Zealand rabibits, and cleaned of the surrounding connective tissues. Bands of prostatic urethrae (3 mm wide, 10-15 mm long) are suspended (1 g tension) in organ baths containing 10 ml of physiological solution (pH 7.4) at 37° C. under an atmosphere of 95% O2 /5% CO2; NaCl (118 mM); KCl (4.7 mM); CaCl2 (2.5 mM); KH2 PO4 (1.2 mM); MgSO4 (1.2 mM); NaHCO3 (25 mM); glucose (11 mM). The contractile responses are measured using force displacement transducers coupled to a Gould 8000S polygraph. A one hour period of equilibration or equalization is provided before the experiment. After equalization, the preparations are sensitized by a submaximal concentration of phenylephrine. Forty five minutes after the sensitization, a concentration-effect curve for the phenylephrine is established. In order to determine the effect of the test compounds, different preparations originating from the same animal are used in parallel. One preparation serves as a control whilst the others receive a concentration of a test compound introduced into the bath 30 minutes before the phenylephrine (Auguet, M. et al. European J. Pharmacol. 217:153 (1995)).
The dissociation constants (Kb) of the test compounds are determined using the following equation: Kb =[B]/(dose ratio--1); in which [B] is the concentration of test compound and (dose ratio) is the EC50 of phenylephrine in the presence of the test compound divided by the EC50 of the control preparation. These resultats are then expressed as the negative logarithm of Kb. The values of the EC50 are calculated from the maximum contractile response to the phenylephrine by computer analysis using a linear regression over the average tension values. The maximum contractile response of each preparation which was subjected to the test compound is determined by comparing the response provoked by the application of the sensitizing concentration of phenylephrine with the response provoked in the control preparation (which has not received the test compounds).

SMILES	Ki (α1-adrenergic receptor) [nM]	-log Kb (prostatic urethrae)
COc1ccc(C(O)(C(=O)NCCCN2CCN(c3cc(C)ccc3C)CC2)c2ccc(OC)cc2)cc1 [Compound 25, N-[3-{4-(2,5-dimethylphenyl)-1-piperazinyl}-propyl]-α-hydroxy-4-methoxy-α-(4-methoxyphenyl)-benzeneacetamide]	29	7.6
Cc1ccc(C)c(N2CCN(CCCNC(=O)C(O)(c3ccccc3)c3ccccc3)CC2)c1 [Compound 7, N-[3-{4-(2. 5-dimethylphenyl)-1-piperazinyl}-propyl]-α-hydroxy-α-phenyl-benzeneacetamide]	30	8.1
COc1ccccc1N1CCN(CCCNC(=O)C(O)(c2ccccc2Cl)c2ccccc2Cl)CC1 [Compound 17, 2-chloro-α-(2-chlorophenyl)-α-hydroxy-N-[3-{4-(2-methoxyphenyl)-1-piperazinyl}-propyl]-α-phenyl-benzeneacetamide]	54	7.7
Cc1ccccc1N1CCN(CCCNC(=O)C(O)(c2ccccc2)c2ccccc2)CC1 [Compound 2, α-hydroxy-N-[3-{4-(2-methylphenyl)-1-piperazinyl}-propyl]-α-phenyl-benzeneacetamide]	30	8
COc1ccccc1N1CCN(CCCNC(=O)C2c3ccccc3Oc3ccccc32)CC1 [Compound 15, N-[3-{4-(2-methoxyphenyl)-1-piperazinyl}-propyl]-9H-xanthene-9-carboxamide]	27	7.9
COc1ccccc1N1CCN(CCCNC(=O)C(c2ccccc2)c2ccccc2)CC1 [Compound 13, N-[3-{4-(2-methoxyphenyl)-1-piperazinyl}-propyl]-α-phenyl-benzeneacetamide]	30	8.2
CCOc1ccccc1N1CCN(CCCNC(=O)C(O)(c2ccccc2)c2ccccc2)CC1 [Compound 8, N-[3-{4-(2-ethoxyphenyl)-1-piperazinyl}-propyl]-α-hydroxy-α-phenyl-benzeneacetamide]	16	8.2
COc1ccccc1N1CCN(CCCNC(=O)C(O)(c2ccccc2)c2ccccc2)CC1 [Compound 14, α-hydroxy-N-[3-{4-(2-methoxyphenyl)-1-piperazinyl}-propyl]-α-phenyl-benzeneacetamide]	27	7.8
O=C(NCCCN1CCN(c2ccccc2Cl)CC1)C(O)(c1ccccc1)c1ccccc1 [Compound 9, N-[3-{4-(2-chlorophenyl)-1-piperazinyl}-propyl]-α-hydroxy-α-phenyl-benzeneacetamide]	28	8.1
N#Cc1ccccc1N1CCN(CCCNC(=O)C(O)(c2ccccc2)c2ccccc2)CC1 [Compound 10, N-[3-{4-(2-cyanophenyl)-1-piperazinyl}-propyl]-α-hydroxy-α-phenyl-benzeneacetamide]	27	8.2
COC(C(=O)NCCCN1CCN(c2cc(C)ccc2C)CC1)(c1ccccc1)c1ccccc1 [Compound 11, N-[3-{4-(2,5-dimethylphenyl)-1-piperazinyl}-propyl]-α-methoxy-α-phenyl-benzeneacetamide]	38	6.9
COc1ccccc1N1CCN(CCCNC(=O)C2(O)c3ccccc3-c3ccccc32)CC1 [Compound 16, 9-hydroxy-N-[3-{4-(2-methoxyphenyl)-1-piperazinyl}-propyl]-9H-fluorene-9-carboxamide]	41	7.8

More lines, main results first:

Ki (α1-adrenergic receptor) [nM]	SMILES	-log Kb (prostatic urethrae)
48	Cc1ccc(C)c(N2CCN(CCCNC(=O)[C@](C)(O)c3ccccc3)CC2)c1 [Compound 46, R-(-)-N-[3-{4-(2,5-dimethylphenyl)-1-piperazinyl}-propyl]-α-hydroxy-α-methyl-benzeneacetamide]	7.5
14	Cc1ccc(C)c(N2CCN(CCCNC(=O)C(C(=O)NCc3ccccc3)c3ccccc3)CC2)c1 (racemic) [Compound 47, (±)-N-[3-{4-(2,5-dimethylphenyl)-1-piperazinyl}-propyl]-α-benzylaminocarbonyl-benzeneacetamide]	7.07
22	Cc1ccc(C)c(N2CCN(CCCNC(=O)C(C)(O)c3cccc4ccccc34)CC2)c1 (racemic) [Compound 42, (±)-N-[3-{4-(2,5dimethylphenyl)-1-piperazinyl}-propyl]-α-hydroxy-α-methyl-1-naphthaleneacetamide]	7.68
29	Cc1ccc(S(=O)(=O)NC(C(=O)NCCCN2CCN(c3cc(C)ccc3C)CC2)c2ccccc2)cc1 (racemic) [Compound 48, (±)-N-[3-{4-(2,5-dimethylphenyl)-1piperazinyl}-propyl]-α-(4-methylphenyl)-sulphonylamino-benzeneacetamide]	7.02
27	Cc1ccc(C)c(N2CCN(CCCNC(=O)C(CO)c3ccccc3)CC2)c1 (racemic) [Compound 39, (±)-N-[3-{4-(2,5-dimethylphenyl)-1-piperazinyl}-propyl]-α-hydroxymethyl-benzeneacetamide]	7.3
31	CCC(O)(C(=O)NCCCN1CCN(c2cc(C)ccc2C)CC1)c1ccccc1 (racemic) [Compound 27, (±)-N-[3-{4-(2,5-dimethylphenyl)-1-piperazinyl}-propyl]-2-hydroxy-2-phenyl-butyramide]	7.6
30	Cc1ccc(C)c(N2CCN(CCCNC(=O)C(C)c3ccccc3)CC2)c1 (racemic) [Compound 38, (±)-N-[3-{4-(2,5-dimethylphenyl)-1-piperazinyl}-propyl]-α-methyl-benzeneacetamide]	7.5
27	Cc1ccc(C)c(N2CCN(CCCNC(=O)C(c3ccccc3)c3ccccc3)CC2)c1 [Compound 20, N-[3-{4-(2,5-dimethylphenyl)-1-piperazinyl}-propyl]-α-phenyl-benzeneacetamide]	7.5
50	Cc1ccc(C)c(N2CCN(CCCNC(=O)C(C)(C(=O)NCc3ccccc3)c3ccccc3)CC2)c1 (racemic) [Compound 50, (±)-N-[3-{4-(2,5-dimethylphenyl)-1-piperazinyl}-propyl]-α-benzylaminocarbonyl-α-methyl-benzeneacetamide]	6.92
25	Cc1ccc(C)c(N2CCN(CCCNC(=O)C(C)(O)c3ccccc3)CC2)c1 (racemic) [Compound 22, (±)-N-[3-{4-(2,5-dimethylphenyl)-1-piperazinyl}-propyl]-α-hydroxy-α-methyl-benzeneacetamide]	8.3
